“Also recorded” adds a separate entry of the source.
How the values were obtained:
human PBMCs [1] = test: PBMC proliferation, 3H-thymidine incorporation; type: cell-based; settings: 3H-thymidine on day 3, 16 hours
Description: Fresh and precultured PBMCs were prepared and cultured as described for FIGS. 1 A and B, respectively. On day 3, 1 μCi of 3H-thymidine was added, and cultures were harvested 16 hours later and processed for liquid scintillation counting. Besides cytokine release, polyclonal T-cell activation results in proliferation which can be measured as radioactivity incorporated, here incorporated as tritiated thymidine. […] Thus, proliferation can also be used as a readout.

human PBMCs [2] = test: Cytokine release from precultured PBMCs restimulated at 10^6/ml, cytokine bead array; type: cell-based; settings: high-density precultured PBMCs, mAb 1 μg/ml, OKT3 compared with TGN1412
Description: For the experiment in FIG. 1B PBMCs from a healthy donor were cultured in 1.5 ml medium for 2 days at 10^7/ml in 24 well flat bottom tissue culture plates before being washed and readjusted to 10^6/ml. With these cells, the same experiment was performed as described in Example 1.
For the experiment of FIG. 3 PBMCs were cultured at 10^6/ml (left bars) or at 10^7/ml (right bars) for 2 days before being stimulated by TGN1412 at 10^6/ml as described in FIG. 1.
For the experiment of FIG. 4 fresh PBMCs (left bars of triplets), and PBMCs precultured at 10^7/ml for 24 (middle bars of triplets) or 48 hours (right bars of triplets) were stimulated with OKT3 or TGN1412 for 24 hours under the conditions given in FIG. 1.
For the experiment of FIG. 5 PBMCs were cultured for two days at high density (10^7/ml, right bars of triplets) or at low density (10^6/ml, left and middle bars of triplets) in 1.5 ml cultures. In the group shown as middle bars of triplets, these low density cultures additionally contained an insert with a semipermeable membrane on which additional PBMCs were cultured at high-density (10^6/ml below membrane, 10^7/ml above membrane, middle bars of triplets).
Cell density. […]
High-density precultured PBMCs were prepared as in FIG. 1B and stimulated with 1 μg/ml of OKT3 or TGN1412. Supernatants were harvested at the times indicated and TNF content was analysed as in FIG. 1.

human PBMCs [3] = test: Cytokine release from freshly isolated PBMCs (standard culture), cytokine bead array; type: cell-based; settings: fresh PBMCs, 10^6/ml, mAb 1 μg/ml, 24 hours
Source text: For the induction of cytokine release, the present invention as well as this comparative example uses a system of PBMC stimulation as described below to study the response of human PBMCs to immune-modulating agents. This system employs freshly prepared PBMCs, isolated from heparinized venous blood by centrifugation over a density gradient (Lymphocyte Separation Medium LSM 1077, PAA Laboratories, Pasching, Germany) following the manufacturer's instructions. […]
In this tissue culture system, freshly isolated PBMCs were stimulated with soluble TGN1412 provided by TheraMab GmbH, Wurzburg. […] After 24 hours, a panel of cytokines including the major pro- and anti-inflammatory factors detected in plasma of the volunteers of the TGN1412 trial (Suntharalingam et al., 2006) were analyzed by the cytokine-bead-array (CBA) technology (Becton Dickinson, Mountain View, Calif., USA) following the manufacturer's instructions. […]
PBMCs from a healthy donor were isolated by Ficoll density centrifugation and cultured in 0.2 ml RPMI1640 medium supplemented with 10% AB serum for 24 hours at 10^6/ml in 96 well flat bottom tissue culture plates. Cytokines in the supernatants were analyzed after 24 hours of incubation by cytokine bead array. […]

CD4 T-cells in PBMCs = test: Intracellular TNF / IFN-gamma staining of CD4 T-cell subsets (flow cytometry, brefeldin A); type: cell-based, human; settings: mAb 1 μg/ml, 18 hours, brefeldin A last 4 hours; CD45RO+ vs CD45RO- CD4 T-cells
Description: 2 day high-density precultured PBMCs were stimulated for 18 hours with 1 μg/ml of OKT3 or of TGN1412. Instead of 18 hours stimulation for a period of time between 15 to 20 hours, preferably 16 to 18 hours, is generally possible. During the last 4 hours of culture, 5 μg/ml of brefeldin A was added to block cellular export of cytokines. After cell-surface staining with fluorochome-conjugated mAb to CD4 and CD45RO (memory marker), cells were fixed, permeabilized and stained with mAb to TNF—left panels—or IFNgamma—right panels—(all from BD Pharmingen, Mountain View, Calif., USA)
15.000 live-gated events were acquired on a BD Calibur flow cytometer and data were analyzed using FlowJo software (Three Star Inc., Ashland, Oreg., USA). The cytokine storm elicited by OKT3 in patients is a well-known phenomenon, and the accompanying information provided with this drug (Muromonomab, Janssen-CILAG) explicitly warns against this syndrome. […] In parallel, the cell surface phenotype of the stimulated PBMCs was determined. The main cytokine-producing T-cell subset, the CD4 T-cells, were thus identified and further subdivided into naive (CD45R0−) and memory (CD45RO+) subsets.

patients = patients receiving mAb therapy; cited from earlier work
PBMCs [4] = type: cell-based, human
PBMCs [5] = type: cell-based, human; remark: listed apart in the source

OKT3: CD3-specific mAb addressing the T-cell antigen receptor, clinical-grade, Janssen-Cilag
proliferation (human PBMCs [1]; 2 day high-density precultured PBMCs): stimulated the proliferation of both, fresh and precultured PBMCs
proliferation (human PBMCs [1]; fresh PBMCs): stimulated the proliferation of both, fresh and precultured PBMCs
kinetics of TNF release (human PBMCs [2]): follows the same kinetics
cytokine release (TNF, IFN-gamma, IL-2, IL-10) (human PBMCs [3]): highly effective in inducing TNF, IFN-gamma, and IL-2; also recorded: ability
cellular source of TNF and IFN-gamma production (CD4 T-cells in PBMCs): predominantly in the CD4 memory subset
systemic cytokine release (patients): induce the systemic release of proinflammatory cytokines

Staphylococcal Enterotoxin B
proliferative response (PBMCs [4]): strongly enhances the sensitivity of this assay

concanavalin A [ConA]
proliferative T-cell response (PBMCs [5]): strongly enhanced

phytohemagglutinin [PHA]
proliferative T-cell response (PBMCs [5]): strongly enhanced

— US20110082091A1, “Method for Preclinical Testing of Immunomodulatory Drugs” (TheraMAB GmbH, priority 2009, published 2011)
